A word on the AC50: it is the concentration giving half of the maximal activity seen. What is called CC50 is the concentration that lowers cell viability or growth by half.

Assay [1] is described as follows: Luminescence Cell-Based Dose Retest to Confirm Inhibitors of Cancer Stem Cells. [Related pubchem assays (depositor defined):AID2717, AID2721]. The conditions noted are these: Homo sapiens. Format: functional.
Assay [2] deals with T1, Heat shock factor protein 1 (Mus musculus, UniProt P38532).
T1 sequence (P38532 whole entry): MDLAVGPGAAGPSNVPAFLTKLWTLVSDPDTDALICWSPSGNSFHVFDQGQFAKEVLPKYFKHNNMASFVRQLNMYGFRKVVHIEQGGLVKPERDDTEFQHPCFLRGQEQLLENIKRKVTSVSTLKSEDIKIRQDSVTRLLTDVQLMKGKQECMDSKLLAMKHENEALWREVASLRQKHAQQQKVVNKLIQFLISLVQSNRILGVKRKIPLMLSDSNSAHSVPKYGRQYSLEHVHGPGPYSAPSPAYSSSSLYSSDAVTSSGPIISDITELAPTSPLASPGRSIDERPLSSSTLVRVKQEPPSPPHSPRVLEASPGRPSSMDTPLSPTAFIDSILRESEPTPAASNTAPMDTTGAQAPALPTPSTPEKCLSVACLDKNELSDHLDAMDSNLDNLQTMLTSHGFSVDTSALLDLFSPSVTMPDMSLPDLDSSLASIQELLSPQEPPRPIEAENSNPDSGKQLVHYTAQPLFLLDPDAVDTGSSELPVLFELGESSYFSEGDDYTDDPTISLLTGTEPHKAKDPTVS
Kind of assay: enhancement of HSF1-driven luciferase signal – cell-based, NIH3T3, luminescence, dose retest, confirmation (AID 435004).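 Also: stress induced by proteasome inhibitor MG132 added 30 min after compound; luciferase reporter driven by HSF1 response element in NIH3T3 cells; actives raise luminescence as potentiators of the MG132 stress response.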 Format: functional.

In assay [3] the target is T2, Replicative DNA helicase DnaB (Mycobacterium tuberculosis, UniProt P9WMR3).
T2 sequence (P9WMR3 whole entry): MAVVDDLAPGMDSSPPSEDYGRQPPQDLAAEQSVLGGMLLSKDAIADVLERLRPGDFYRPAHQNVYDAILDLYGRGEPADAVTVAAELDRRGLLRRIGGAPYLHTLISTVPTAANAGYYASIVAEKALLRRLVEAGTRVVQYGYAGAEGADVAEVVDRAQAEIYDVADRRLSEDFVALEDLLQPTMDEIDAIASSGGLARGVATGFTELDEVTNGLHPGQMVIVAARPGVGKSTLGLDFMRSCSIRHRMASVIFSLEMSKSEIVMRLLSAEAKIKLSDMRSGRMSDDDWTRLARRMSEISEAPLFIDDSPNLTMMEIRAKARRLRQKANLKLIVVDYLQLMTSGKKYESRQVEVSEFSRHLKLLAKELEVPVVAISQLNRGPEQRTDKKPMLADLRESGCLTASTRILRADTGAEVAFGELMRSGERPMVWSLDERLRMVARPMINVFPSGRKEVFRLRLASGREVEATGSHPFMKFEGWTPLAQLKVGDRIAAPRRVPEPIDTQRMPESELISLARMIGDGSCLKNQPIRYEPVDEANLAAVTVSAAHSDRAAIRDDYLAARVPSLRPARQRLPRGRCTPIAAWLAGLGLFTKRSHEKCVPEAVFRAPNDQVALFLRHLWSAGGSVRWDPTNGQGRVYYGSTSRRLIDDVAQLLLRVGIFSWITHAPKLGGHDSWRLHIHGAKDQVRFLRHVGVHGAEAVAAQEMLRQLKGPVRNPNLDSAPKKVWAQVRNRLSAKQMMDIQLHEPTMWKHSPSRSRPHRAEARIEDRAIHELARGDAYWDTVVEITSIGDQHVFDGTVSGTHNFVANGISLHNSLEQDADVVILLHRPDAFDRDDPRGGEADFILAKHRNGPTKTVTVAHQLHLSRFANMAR
Put plainly: DnaB intein splicing inhibitors, dose response, biochemical, cell-free fluorescence (AID 449749). It is filed as functional.

Assay [4] addresses T3, Protein RecA (Mycobacterium tuberculosis, UniProt P9WHJ3).
T3 sequence (P9WHJ3 whole entry): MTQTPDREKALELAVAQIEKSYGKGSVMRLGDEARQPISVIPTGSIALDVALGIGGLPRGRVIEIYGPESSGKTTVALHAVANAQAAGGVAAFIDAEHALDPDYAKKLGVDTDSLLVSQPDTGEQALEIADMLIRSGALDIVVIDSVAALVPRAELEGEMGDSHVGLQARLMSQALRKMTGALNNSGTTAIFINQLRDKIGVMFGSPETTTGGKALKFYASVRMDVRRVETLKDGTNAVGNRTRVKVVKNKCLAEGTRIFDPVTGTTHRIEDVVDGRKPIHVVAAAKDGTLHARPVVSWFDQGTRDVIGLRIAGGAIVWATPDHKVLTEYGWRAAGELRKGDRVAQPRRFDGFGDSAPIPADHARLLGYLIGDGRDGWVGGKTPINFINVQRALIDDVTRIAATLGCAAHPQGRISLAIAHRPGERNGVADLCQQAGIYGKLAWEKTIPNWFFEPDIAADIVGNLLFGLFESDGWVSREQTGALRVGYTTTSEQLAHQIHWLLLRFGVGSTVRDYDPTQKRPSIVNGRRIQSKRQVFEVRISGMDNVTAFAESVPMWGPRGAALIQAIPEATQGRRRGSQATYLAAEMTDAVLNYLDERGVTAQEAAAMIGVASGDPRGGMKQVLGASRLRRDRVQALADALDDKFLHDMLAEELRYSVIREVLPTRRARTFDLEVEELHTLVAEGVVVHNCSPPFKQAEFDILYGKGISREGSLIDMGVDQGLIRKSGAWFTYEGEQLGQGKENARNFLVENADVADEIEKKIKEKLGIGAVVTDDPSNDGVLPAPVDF
Kind of assay: Fluorescence Cell-Free Homogeneous Dose Retest to Identify Inhibitors of RecA-Intein Splicing Activity. [Related pubchem assays (depositor defined):AID2097, AID2223, AID489010, AID492950]. Format: functional.

Assay [5] has as its target T4, Corticotropin-releasing factor receptor 2/Corticotropin-releasing factor-binding protein (Homo sapiens, UniProt P24387+Q13324).
T4 sequence (Q13324 whole entry): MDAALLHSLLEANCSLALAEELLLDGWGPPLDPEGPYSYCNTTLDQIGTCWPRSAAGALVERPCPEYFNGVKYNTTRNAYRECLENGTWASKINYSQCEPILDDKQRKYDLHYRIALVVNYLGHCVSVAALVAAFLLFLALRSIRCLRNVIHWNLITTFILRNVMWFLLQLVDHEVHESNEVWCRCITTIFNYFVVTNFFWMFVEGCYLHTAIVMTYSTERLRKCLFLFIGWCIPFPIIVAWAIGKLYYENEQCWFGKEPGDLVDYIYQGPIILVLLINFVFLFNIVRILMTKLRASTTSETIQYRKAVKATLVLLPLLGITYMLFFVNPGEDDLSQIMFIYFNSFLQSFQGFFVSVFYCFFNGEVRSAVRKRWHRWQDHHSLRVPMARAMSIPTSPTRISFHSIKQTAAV
T4 sequence (P24387 whole entry): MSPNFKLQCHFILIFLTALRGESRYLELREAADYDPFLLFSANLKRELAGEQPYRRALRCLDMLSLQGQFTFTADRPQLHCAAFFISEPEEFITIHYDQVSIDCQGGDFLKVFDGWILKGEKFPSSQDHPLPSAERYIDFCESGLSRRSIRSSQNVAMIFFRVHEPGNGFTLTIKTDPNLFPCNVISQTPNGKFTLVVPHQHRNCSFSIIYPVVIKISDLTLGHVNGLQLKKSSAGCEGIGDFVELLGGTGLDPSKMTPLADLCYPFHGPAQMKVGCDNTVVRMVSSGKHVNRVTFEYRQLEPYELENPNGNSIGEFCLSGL
Kind of assay: Dose Response confirmation of uHTS hits for small molecule antagonists of the CRF-binding protein and CRF-R2 receptor complex. It is filed as functional. The conditions noted are these: read-out: IC50_Mean.

In assay [6] the target is T4, Corticotropin-releasing factor receptor 2/Corticotropin-releasing factor-binding protein. Kind of assay: activators of CRF receptor 2 with binding protein – uHTS hits, confirmation (AID 602473). Format: functional. The conditions noted are these: read-out: EC50_Mean.
Assay [7] is described as follows: blockers of CRF-binding protein–CRF-R2 complex – cell-based, uHTS hits, 384-well, dose response (AID 651639). Format: functional, Homo sapiens. As to conditions: read-out: IC50_Mean.
Assay [8] has as its target T5, Fatty acid synthase (Homo sapiens, UniProt P49327). Put plainly: inhibition of human FAS-TE enzyme activity – biochemical, endpoint fluorescence intensity, uHTS hits, dose response (AID 624327).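 Also: fluorescence from hydrolysis of an O-methyl fluorescein acyl ester substrate by the enzyme.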 Format: functional.
Assay [9] has as its target T5, Fatty acid synthase. Kind of assay: inhibition of human FAS-TE enzyme activity – biochemical, kinetic fluorescence intensity, dose response (AID 624326).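 Also: rate of fluorescence rise from hydrolysis of a fluorogenic O-methyl fluorescein ester substrate.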 It is filed as functional.
The nature of assay [10]: viability of PTEN-deleted HCT116 cells – cell-based, HCT116 PTEN knockout, dose response (AID 1047).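 Also: HCT116 colon tumor cells with PTEN knocked out; cells exposed to compound for 60 hours before readout; potency for loss of cell viability measured by luminescence.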 Format: functional.
Assay [11] can be described thus: THP-1 cell cytotoxicity, dose response, cytotoxicity control for non-replicating M. tuberculosis project (AID 489025). Format: functional.
A short description of assay [12]: cells. Format: functional.
Assay [13] in a line: viability of uninfected HEp-2 cells – cell-based, HTS, cytotoxicity control for RSV inhibitor project, dose response (AID 2410). It is filed as functional. The conditions noted are these: human respiratory syncytial virus.
A short description of assay [14]: A549 cell cytotoxicity, dose response, cytotoxicity control, plate reader, cherry-pick, antagonist series (AID 743412). It is filed as functional, cell-based.

Calls of active or inactive are those of the source.

T5 sequence (P49327 whole entry): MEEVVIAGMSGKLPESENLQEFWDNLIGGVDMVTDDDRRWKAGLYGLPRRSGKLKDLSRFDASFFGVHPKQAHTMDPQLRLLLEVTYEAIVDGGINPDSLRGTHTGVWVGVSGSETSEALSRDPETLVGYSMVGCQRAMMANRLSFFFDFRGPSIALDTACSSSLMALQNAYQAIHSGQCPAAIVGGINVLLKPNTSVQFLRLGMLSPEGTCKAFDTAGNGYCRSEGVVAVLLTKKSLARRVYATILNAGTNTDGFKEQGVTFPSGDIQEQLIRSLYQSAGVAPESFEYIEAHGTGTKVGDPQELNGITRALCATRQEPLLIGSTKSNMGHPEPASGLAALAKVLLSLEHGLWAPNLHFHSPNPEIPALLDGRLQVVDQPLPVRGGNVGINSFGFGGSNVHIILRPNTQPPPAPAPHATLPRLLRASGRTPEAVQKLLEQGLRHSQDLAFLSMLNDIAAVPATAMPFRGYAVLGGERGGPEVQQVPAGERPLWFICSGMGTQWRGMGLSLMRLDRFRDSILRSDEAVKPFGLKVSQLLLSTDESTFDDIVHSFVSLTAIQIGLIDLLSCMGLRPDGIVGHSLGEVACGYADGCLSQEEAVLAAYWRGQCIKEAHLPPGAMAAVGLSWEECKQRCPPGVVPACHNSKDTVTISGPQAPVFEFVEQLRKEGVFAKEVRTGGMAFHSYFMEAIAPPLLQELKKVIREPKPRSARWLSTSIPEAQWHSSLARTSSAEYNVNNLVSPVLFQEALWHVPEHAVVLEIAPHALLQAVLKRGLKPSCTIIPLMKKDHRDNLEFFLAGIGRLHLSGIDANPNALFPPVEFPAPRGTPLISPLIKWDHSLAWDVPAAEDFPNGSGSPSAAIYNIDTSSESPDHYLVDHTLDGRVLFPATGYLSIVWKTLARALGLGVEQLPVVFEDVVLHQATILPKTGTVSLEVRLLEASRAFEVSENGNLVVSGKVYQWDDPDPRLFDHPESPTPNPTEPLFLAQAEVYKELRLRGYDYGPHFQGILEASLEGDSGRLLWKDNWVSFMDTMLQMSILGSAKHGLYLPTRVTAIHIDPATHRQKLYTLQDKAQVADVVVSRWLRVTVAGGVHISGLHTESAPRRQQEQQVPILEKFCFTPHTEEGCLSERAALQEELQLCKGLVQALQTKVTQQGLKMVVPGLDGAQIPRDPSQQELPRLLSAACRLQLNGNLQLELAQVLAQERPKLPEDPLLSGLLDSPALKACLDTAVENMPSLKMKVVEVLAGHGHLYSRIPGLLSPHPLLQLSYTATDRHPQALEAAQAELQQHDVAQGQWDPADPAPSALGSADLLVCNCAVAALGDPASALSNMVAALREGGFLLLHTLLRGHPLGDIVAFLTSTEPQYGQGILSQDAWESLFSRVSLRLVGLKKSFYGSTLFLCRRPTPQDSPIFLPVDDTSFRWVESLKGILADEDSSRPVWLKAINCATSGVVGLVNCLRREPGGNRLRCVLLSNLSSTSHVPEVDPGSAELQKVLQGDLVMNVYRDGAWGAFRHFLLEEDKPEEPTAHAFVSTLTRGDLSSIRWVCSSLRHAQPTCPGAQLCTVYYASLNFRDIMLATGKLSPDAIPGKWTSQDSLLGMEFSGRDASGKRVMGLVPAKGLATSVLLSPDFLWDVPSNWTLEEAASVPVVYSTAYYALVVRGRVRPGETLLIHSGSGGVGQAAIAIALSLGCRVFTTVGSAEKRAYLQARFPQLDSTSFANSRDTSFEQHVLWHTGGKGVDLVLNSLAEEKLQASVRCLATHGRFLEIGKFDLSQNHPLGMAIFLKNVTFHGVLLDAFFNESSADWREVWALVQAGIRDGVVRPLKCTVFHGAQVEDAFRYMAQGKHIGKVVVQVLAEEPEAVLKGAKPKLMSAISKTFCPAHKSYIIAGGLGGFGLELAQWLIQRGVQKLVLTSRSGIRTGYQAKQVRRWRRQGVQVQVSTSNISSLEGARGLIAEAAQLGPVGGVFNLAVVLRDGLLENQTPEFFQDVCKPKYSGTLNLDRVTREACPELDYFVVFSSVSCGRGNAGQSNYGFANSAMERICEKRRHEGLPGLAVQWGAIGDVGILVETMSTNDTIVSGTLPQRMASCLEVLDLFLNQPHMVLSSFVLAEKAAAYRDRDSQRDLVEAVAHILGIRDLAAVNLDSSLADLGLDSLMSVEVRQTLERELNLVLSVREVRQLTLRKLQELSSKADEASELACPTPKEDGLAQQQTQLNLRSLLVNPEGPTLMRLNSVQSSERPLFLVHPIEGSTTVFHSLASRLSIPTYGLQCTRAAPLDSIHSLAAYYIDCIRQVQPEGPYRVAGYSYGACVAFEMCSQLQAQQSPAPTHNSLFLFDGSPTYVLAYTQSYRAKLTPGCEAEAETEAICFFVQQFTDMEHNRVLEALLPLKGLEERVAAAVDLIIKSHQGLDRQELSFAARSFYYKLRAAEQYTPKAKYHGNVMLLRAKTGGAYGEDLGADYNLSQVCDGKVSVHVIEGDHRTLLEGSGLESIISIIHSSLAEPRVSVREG

As to `Cc1ccc(-c2cc(NC(=O)CCl)n(-c3ccccc3)n2)cc1`, the half-maximal activity concentration (AC50) in assay [1] was 5.24 µM (active); in assay [3] it was 16.2 µM (active). The EC50 is 9.36 µM (active) in [2] and 5.68 µM (active) in [4].

Regarding `CCOC(=O)C(CCCCOc1ccc([N+](=O)[O-])cc1)C(=O)OCC`, the IC50 in [5] was 25.9 µM (active); in [7], > 20 µM (inactive). The EC50 in assay [6] is > 53 µM (inactive).

Turning to `O=[N+]([O-])c1cccc(C2NCC(c3ccccc3Cl)c3c2[nH]c2ccccc32)c1` (centres undefined), the AC50 in assay [1] is 2.69 µM (active).

As to `Cc1ccc(NC(=O)c2cc([N+](=O)[O-])ccc2N2CCOCC2)cc1C`, the IC50 is 4.24 µM (active) in assay [8] and 2.81 µM (active) in assay [9].

`COC(=O)c1ccc(Oc2nc(C(N)=O)cc(-c3ccccc3)n2)cc1`: the EC50 in [10] was 29.9 µM (active).

As to `O=C(/C=C/c1cc2ccccc2o1)c1ccccc1O`, the AC50 in assay [1] is 10.6 µM (active).

Take `Nc1ccc2nc3c(c(Cl)c2c1)CCCC3`: the CC50 in assay [11] was 2.79 µM (active). For the same compound, the IC50 in assay [12] was 13.7 µM (active).

As to `O=C(OCc1cccc(C(F)(F)F)c1)c1cc([N+](=O)[O-])ccc1N1CCOCC1`, the IC50 in assay [8] is 7.84 µM (active); in [9] it was 7.24 µM (active).

For the compound `Cc1ccc(NC(=O)Cn2ncn3c(cc4ccccc43)c2=O)cc1F`, the IC50 is 9.94 µM (active) in assay [5] and 7.27 µM (active) in assay [7]. Further, the EC50 in [6] is > 53 µM (inactive).

Regarding `CC1CCc2nc(NC(=O)CN3CCN(c4ccc(F)cc4)CC3)sc2C1` (centres undefined), the IC50 was 2.04 µM (active) in [8] and 1.81 µM (active) in assay [9].

For the compound `O=C(/C=C/c1ccc(Cl)c([N+](=O)[O-])c1)Nc1cccc(NC(=O)c2ccco2)c1`, in [13], the CC50 was 21.2 µM (active). For the same compound, the concentration at half-maximal activity (AC50) in assay [1] was 2.56 µM (active).

For `CCCCCCCCCCCC(=O)NC(Cc1ccc(OC)c([N+](=O)[O-])c1)C(=O)O` (centres undefined), the figures for the IC50 in assay [5] and in [7] were 11.6 µM (active) and > 20 µM (inactive), respectively. Besides, the EC50 in assay [6] is > 53 µM (inactive).

For `C=CCC[C@@H](Cc1ccc(F)cc1)C(=O)OC[C@H](Cc1c[nH]c2ccccc12)NC(=O)[C@H](CC=C)CC(=O)NCCO`, the IC50 in assay [8] is 10.9 µM (active); in [9], 6.03 µM (active).

Consider `COc1ccc2c(c1)C(=O)N1[C@H]3c4cc(Cl)ccc4OC[C@@H]3[C@H](c3ccccc3)[C@]1(C)C(=O)N2`, for which the IC50 in assay [8] was 16.5 µM (active); in [9], 18.8 µM (active).

As for `COc1ccc(NC(=O)CCCCC(=O)Nc2ccc(OC)cc2OC)c(OC)c1`, the results for the IC50 in assay [5] and in assay [7] were < 0.368 µM (active) and > 20 µM (inactive), respectively. Moreover, the EC50 in assay [6] was > 53 µM (inactive).

For the compound `Cc1ccc(S(=O)(=O)N(C)C[C@H]2Oc3cc(Br)ccc3S(=O)(=O)N([C@H](C)CO)C[C@H]2C)cc1`, the half-maximal activity concentration (AC50) in assay [14] is 33.6 µM (active).

For `COc1ccc(C2N(Cc3ccccc3)CC(=O)N2/N=C(\C)c2ccccc2)cc1` (centres undefined), the IC50 was 13.8 µM (active) in assay [5] and 4.93 µM (active) in assay [7]. The EC50 in assay [6] was > 53 µM (inactive).

As for `C[C@@H]1CN([C@H](C)CO)C(=O)c2cc(NC(=O)Nc3ccc(F)cc3)ccc2O[C@@H](C)CCCCO[C@H]1CN(C)S(=O)(=O)c1cccs1`, the IC50 in [8] is 5.17 µM (active); in [9], 3.69 µM (active).

Take `O=C(N/C(=C/C=C/c1ccccc1)C(=O)N1CCCCC1)c1ccc([N+](=O)[O-])cc1`: the IC50 is 0.295 µM (active) in assay [8] and 0.258 µM (active) in assay [9].

For `COC(=O)C1=CN(Cc2ccc(OC)cc2)C=C(C(=O)OC)C1c1cccs1`, the values for the IC50 in assay [5] and in [7] were 4.21 µM (active) and > 20 µM (inactive), respectively. Besides, the EC50 in [6] was > 53 µM (inactive).

Values taken from ChEMBL document CHEMBL1201862, “PubChem BioAssay data set” (2004).
